Test results from patent US11339130B1 (Blade Therapeutics, Inc., priority 2016, dated 2022).
Where a name gives a salt, the structure may show the parent alone. Read-outs that look alike come from different tables or passages of the source.

Assays:
[1] = target: T1, Human Calpain 1/NS1 (Homo sapiens, UniProt P07384); test: Calpain inhibition continuous fluorescence (FRET) assay, Human Calpain 1/NS1; assay type: biochemical; details: read-out: Human Calpain 1/NS1 IC50
T1 sequence (P07384 1-714): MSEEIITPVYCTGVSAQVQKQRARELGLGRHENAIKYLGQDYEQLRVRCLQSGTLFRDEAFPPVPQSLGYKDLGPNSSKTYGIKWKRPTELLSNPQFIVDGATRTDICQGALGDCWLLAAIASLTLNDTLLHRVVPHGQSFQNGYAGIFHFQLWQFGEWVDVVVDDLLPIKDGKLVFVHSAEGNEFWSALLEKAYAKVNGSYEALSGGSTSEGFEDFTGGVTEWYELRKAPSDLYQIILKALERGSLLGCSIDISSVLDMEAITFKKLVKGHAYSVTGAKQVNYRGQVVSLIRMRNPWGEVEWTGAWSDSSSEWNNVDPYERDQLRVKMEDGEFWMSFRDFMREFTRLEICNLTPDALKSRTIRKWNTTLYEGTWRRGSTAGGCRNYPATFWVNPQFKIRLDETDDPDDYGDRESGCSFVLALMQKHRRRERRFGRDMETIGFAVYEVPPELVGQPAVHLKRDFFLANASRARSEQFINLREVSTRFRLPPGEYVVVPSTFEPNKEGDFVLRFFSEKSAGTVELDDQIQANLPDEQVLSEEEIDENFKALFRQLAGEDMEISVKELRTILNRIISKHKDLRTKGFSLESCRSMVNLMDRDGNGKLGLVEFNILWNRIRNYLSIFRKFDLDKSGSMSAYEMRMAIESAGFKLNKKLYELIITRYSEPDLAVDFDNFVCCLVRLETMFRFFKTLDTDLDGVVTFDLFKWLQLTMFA
T1 sequence (P04632 1-268 partner): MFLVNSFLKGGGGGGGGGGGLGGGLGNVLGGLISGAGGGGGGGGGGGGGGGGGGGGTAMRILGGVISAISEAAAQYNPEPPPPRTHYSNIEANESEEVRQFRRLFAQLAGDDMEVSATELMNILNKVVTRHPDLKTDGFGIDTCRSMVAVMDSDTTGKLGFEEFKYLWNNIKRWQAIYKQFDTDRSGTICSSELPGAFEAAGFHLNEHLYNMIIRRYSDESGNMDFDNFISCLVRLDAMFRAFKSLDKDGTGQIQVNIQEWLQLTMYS
Summary of the method: (§1)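 Inhibitors were preincubated with calpain in 50 mM Tris pH 7.5, 100 mM NaCl, 1 mM DTT at 25C. Reactions were started with 5-FAM/QXL 520 FRET peptide substrate plus CaCl2 and read at 490/520 nm for 10 min. IC50s came from 4-parameter fits of slope rates (1-5 min).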

[2] = target: T2, Human Calpain 2/NS1 (Homo sapiens, UniProt P17655); test: Calpain inhibition continuous fluorescence (FRET) assay, Human Calpain 2/NS1; assay type: biochemical; details: read-out: Human Calpain 2/NS1 IC50
T2 sequence (P17655 1-700): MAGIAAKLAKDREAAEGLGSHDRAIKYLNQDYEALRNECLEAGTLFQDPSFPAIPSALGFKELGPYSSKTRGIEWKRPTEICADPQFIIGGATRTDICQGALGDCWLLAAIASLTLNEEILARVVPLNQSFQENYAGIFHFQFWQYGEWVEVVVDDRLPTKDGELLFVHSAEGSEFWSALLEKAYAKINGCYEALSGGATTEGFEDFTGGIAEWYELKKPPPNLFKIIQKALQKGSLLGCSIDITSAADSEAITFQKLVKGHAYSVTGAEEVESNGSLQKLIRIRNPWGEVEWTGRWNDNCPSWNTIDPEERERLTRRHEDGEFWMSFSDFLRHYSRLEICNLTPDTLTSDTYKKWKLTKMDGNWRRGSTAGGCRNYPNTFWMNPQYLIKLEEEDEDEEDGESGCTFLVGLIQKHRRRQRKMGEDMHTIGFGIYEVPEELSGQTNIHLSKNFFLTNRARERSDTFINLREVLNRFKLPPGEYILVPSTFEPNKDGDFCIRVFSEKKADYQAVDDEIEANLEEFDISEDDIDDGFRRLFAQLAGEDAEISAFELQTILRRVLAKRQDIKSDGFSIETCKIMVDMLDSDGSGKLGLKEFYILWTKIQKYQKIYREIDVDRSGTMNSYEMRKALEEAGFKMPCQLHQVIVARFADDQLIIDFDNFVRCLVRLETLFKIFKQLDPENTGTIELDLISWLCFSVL
T2 sequence (P04632 1-268 partner): T1 sequence (P04632 1-268 partner)
Summary of the method: as §1

[3] = target: T3, Human Calpain 9/NS1 (Homo sapiens, UniProt O14815); test: Calpain inhibition continuous fluorescence (FRET) assay, Human Calpain 9/NS1; assay type: biochemical; details: read-out: Human Calpain 9/NS1 IC50
T3 sequence (O14815 1-690): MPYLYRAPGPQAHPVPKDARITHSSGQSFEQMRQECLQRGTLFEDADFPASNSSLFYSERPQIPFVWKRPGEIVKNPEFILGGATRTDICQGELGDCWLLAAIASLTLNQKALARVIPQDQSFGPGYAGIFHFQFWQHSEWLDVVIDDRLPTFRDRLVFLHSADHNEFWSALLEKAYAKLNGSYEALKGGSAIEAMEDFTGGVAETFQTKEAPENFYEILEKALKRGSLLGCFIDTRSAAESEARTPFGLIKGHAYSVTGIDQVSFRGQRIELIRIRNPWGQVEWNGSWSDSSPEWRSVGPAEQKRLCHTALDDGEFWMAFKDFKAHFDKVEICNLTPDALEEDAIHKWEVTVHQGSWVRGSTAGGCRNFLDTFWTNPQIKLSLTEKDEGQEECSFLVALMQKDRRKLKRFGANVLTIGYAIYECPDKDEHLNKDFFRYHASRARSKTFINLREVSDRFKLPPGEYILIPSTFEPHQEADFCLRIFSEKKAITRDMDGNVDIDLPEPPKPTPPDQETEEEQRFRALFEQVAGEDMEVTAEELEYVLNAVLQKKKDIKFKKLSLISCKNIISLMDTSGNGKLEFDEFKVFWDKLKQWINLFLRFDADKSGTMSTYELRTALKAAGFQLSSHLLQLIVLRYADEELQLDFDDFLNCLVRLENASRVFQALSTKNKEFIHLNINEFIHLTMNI
T3 sequence (P04632 1-268 partner): T1 sequence (P04632 1-268 partner)
Summary of the method: as §1

[4] = tested on: Calpain activity in SH-SY5Y cells (SBDP-150); test: SH-SY5Y Spectrin western blot assay (SBDP-150 breakdown product, A23187-induced); assay type: cell-based; details: SH-SY5Y cells, read-out: SH-SY5Y Spectrin IC50
[5] = tested on: Calpain activity in SH-SY5Y cells; test: SH-SY5Y + AMC fluorescence assay (Suc-LLVY-AMC substrate); assay type: cell-based; details: read-out: SH-SY5Y + AMC IC50
[6] = Homo sapiens, A23187-induced SBDP-150, western blot
[7] = Homo sapiens, Column D, A23187-induced SBDP-150

| Molecule | IC50 [1] [µM] | IC50 [2] [µM] | IC50 [3] [µM] | IC50 [4, 6] [µM] | IC50 [5] [µM] | IC50 ([1]; Column A) [µM] | IC50 ([2]; Column B) [µM] | IC50 ([3]; Column C) [µM] | IC50 ([4]; Column D, A23187-induced SBDP-150) [µM] | IC50 ([5]; Column E) [µM] | IC50 [4, 7] [µM] |
| --- | --- | --- | --- | --- | --- | --- | --- | --- | --- | --- | --- |
| CCCCC(NC(=O)c1oc(C)nc1-c1ccccc1)C(=O)C(=O)NC1CC1 (stereo not drawn) [Compound 460, N-(1-(cyclopropylamino)-1,2-dioxoheptan-3-yl)-2-methyl-4-phenyloxazole-5-carboxamide] | < 3 | < 3 | < 3 | > 25 | > 25 |  |  |  |  |  |  |
| CC[C@@H](C)[C@H](NC(=O)c1oc(C)nc1-c1ccccc1)C(=O)C(N)=O [Compound 387, N-((3S,4R)-1-amino-4-methyl-1,2-dioxohexan-3-yl)-2-methyl-4-phenyloxazole-5-carboxamide] | < 3 | < 3 | < 3 | > 25 | > 25 |  |  |  |  |  |  |
| Cn1cc(C(=O)NC(Cc2ccccc2)C(=O)C(N)=O)c(-c2c(F)cccc2F)n1 (stereo not drawn) [Compound 486, N-(4-amino-3,4-dioxo-1-phenylbutan-2-yl)-3-(2,6-difluorophenyl)-1-methyl-1H-pyrazole-4-carboxamide] | < 3 | < 3 | < 3 | 10 to 25 | < 10 |  |  |  |  |  |  |
| Cc1nc(-c2cnc3ccccc3n2)c(C(=O)NC(Cc2ccccc2)C(=O)C(N)=O)o1 (stereo not drawn) [Compound 356, N-(4-amino-3,4-dioxo-1-phenylbutan-2-yl)-2-methyl-4-(quinoxalin-2-yl)oxazole-5-carboxamide] | < 3 | < 3 | < 3 | > 25 | > 25 |  |  |  |  |  |  |
| (S)—N-(4-amino-3,4-dioxo-1-phenylbutan-2-yl)-4-(2-fluorophenyl)-2-methyloxazole-5-carboxamide [Compound 267] |  |  |  |  |  | < 3 | < 3 | < 3 | 10 to 25 | < 10 |  |
| Cn1cc(C(=O)N[C@@H](Cc2ccccc2)C(=O)C(=O)NCC(N)=O)c(-c2ccccc2)n1 [Compound 339, (S)—N-(4-((2-amino-2-oxoethyl)amino)-3,4-dioxo-1-phenylbutan-2-yl)-1-methyl-3-phenyl-1H-pyrazole-4-carboxamide] | < 3 | < 3 | < 3 | > 25 | 10 to 25 |  |  |  |  |  |  |
| Cc1ccc(-c2nn(C)cc2C(=O)N[C@@H](Cc2ccccc2)C(=O)C(N)=O)cc1 [Compound 166, (S)—N-(4-amino-3,4-dioxo-1-phenylbutan-2-yl)-1-methyl-3-(p-tolyl)-1H-pyrazole-4-carboxamide] |  |  |  |  |  | < 3 | < 3 | < 3 |  | > 25 | 10 to 25 |
| Cc1cc(C(=O)N[C@@H](Cc2ccccc2)C(=O)C(N)=O)n(-c2ccc(CNCc3ccccc3)cc2)n1 [Compound 160, (S)—N-(4-amino-3,4-dioxo-1-phenylbutan-2-yl)-1-(4-((benzylamino)methyl)phenyl)-3-methyl-1H-pyrazole-5-carboxamide hydrochloride] |  |  |  |  |  | < 3 | < 3 | < 3 |  | > 25 | 10 to 25 |
| Cn1ncc(C(=O)N[C@@H](Cc2ccccc2)C(=O)C(N)=O)c1-c1cnccn1 [Compound 174] |  |  |  |  |  | < 3 | < 3 | < 3 |  | > 25 | > 25 |
| NC(=O)C(=O)[C@H](Cc1ccccc1)NC(=O)c1cn(-c2ccccc2)nc1-c1ccccc1 [Compound 309, (S)—N-(4-amino-3,4-dioxo-1-phenylbutan-2-yl)-1,3-diphenyl-1H-pyrazole-4-carboxamide] | < 3 | < 3 | < 3 | 10 to 25 | < 10 |  |  |  |  |  |  |
| Cc1cc(C(=O)N[C@@H](Cc2ccccc2)C(=O)C(N)=O)n(-c2ccc(-c3ccccc3)cc2)n1 [Compound 83, (S)-1-([1,1′-biphenyl]-4-yl)-N-(4-amino-3,4-dioxo-1-phenylbutan-2-yl)-3-methyl-1H-pyrazole-5-carboxamide] |  |  |  |  |  | < 3 | < 3 | < 3 |  | > 25 | < 10 |
| C#Cc1nccc(-n2nc(C)cc2C(=O)N[C@@H](Cc2ccccc2)C(=O)CF)n1 [Compound 433, (S)-1-(2-ethynylpyrimidin-4-yl)-N-(4-fluoro-3-oxo-1-phenylbutan-2-yl)-3-methyl-1H-pyrazole-5-carboxamide] | 3 to 10 | 3 to 10 | > 10 | 10 to 25 | > 25 |  |  |  |  |  |  |
| Cn1cc(C(=O)NC(Cc2ccccc2)C(=O)C(N)=O)c(-c2cccc3c2OCCO3)n1 (stereo not drawn) [Compound 570, N-(4-amino-3,4-dioxo-1-phenylbutan-2-yl)-3-(2,3-dihydrobenzo[b][1,4]dioxin-5-yl)-1-methyl-1H-pyrazole-4-carboxamide] | < 3 | < 3 | < 3 | > 25 | > 25 |  |  |  |  |  |  |
| Cc1noc(-c2ccccc2)c1C(=O)N[C@@H](Cc1c[nH]c2ccccc12)C(=O)C(N)=O [Compound 57, (S)—N-(4-amino-1-(1H-indol-3-yl)-3,4-dioxobutan-2-yl)-3-methyl-5-phenylisoxazole-4-carboxamide] |  |  |  |  |  | < 3 | < 3 | < 3 |  | 10 to 25 | < 10 |
| NC(=O)C(=O)[C@H](Cc1ccccc1)NC(=O)c1c[nH]nc1-c1ccccc1 [Compound 30, (S)—N-(4-amino-3,4-dioxo-1-phenylbutan-2-yl)-3-phenyl-1H-pyrazole-4-carboxamide] |  |  |  |  |  | < 3 | < 3 | < 3 |  | 10 to 25 | < 10 |
